Structures can show the parent of a compound that is named as a salt.
Tested on: Acinetobacter baumannii ATCC17961
Test: Antimicrobial susceptibility testing: 90% growth inhibitory concentration (IC90) determination in Iso-Sensitest broth, OD600 growth
Format: cell-based
Settings: Acinetobacter baumannii, ATCC17961, 16 h, read-out: A. baumannii ATCC 17961 IC90 (uM), strain ATCC 17961, OD600 growth over 16 h
Method in brief: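 Twofold compound dilutions (e.g. 50 to 0.097 μM final) in Iso-Sensitest broth with ~5×10^(5) CFU/ml, 35±2 °C. OD600 read every 20 min over 16 h; IC90 from growth inhibition during logarithmic phase.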

Row | Structure (SMILES) | IC90
1 | CCc1cc(Nc2nccn3c(-c4cn(C5COC5)nc4C(F)(F)F)cnc23)ccc1C(=O)NCCOCCN [Example 241, N-[2-(2-aminoethoxy)ethyl]-2-ethyl-4-[[3-[1-(oxetan-3-yl)-3-(trifluoromethyl)pyrazol-4-yl]imidazo[1,2-a]pyrazin-8-yl]amino]benzamide formate] | 0.322 µM
2 | N#CCCn1cc(-c2cnc3c(Nc4ccc(C(=O)N5CCN(C(=O)CCN)CC5)c(Cl)c4)nccn23)c(C(F)(F)F)n1 [Example 256, 3-[4-[8-[4-[4-(3-aminopropanoyl)piperazine-1-carbonyl]-3-chloroanilino]imidazo[1,2-a]pyrazin-3-yl]-3-(trifluoromethyl)pyrazol-1-yl]propanenitrile formate] | 0.358 µM
3 | N#CCCn1cc(-c2cnc3c(Nc4ccc(C(=O)N5CCN(C(=O)N[C@H]6CCNC6)CC5)c(Cl)c4)nccn23)c(C(F)(F)F)n1 [Example 259, 4-[2-chloro-4-[[3-[1-(2-cyanoethyl)-3-(trifluoromethyl)pyrazol-4-yl]imidazo[1,2-a]pyrazin-8-yl]amino]benzoyl]-N-[(3S)-pyrrolidin-3-yl]piperazine-1-carboxamide formate] | 0.463 µM
4 | CCc1cc(Nc2nccn3c(-c4cn(CC#N)nc4C(F)(F)F)cnc23)ccc1C(=O)N1CCNCC1 [Example 260, 2-[4-[8-[3-ethyl-4-(piperazine-1-carbonyl)anilino]imidazo[1,2-a]pyrazin-3-yl]-3-(trifluoromethyl)pyrazol-1-yl]acetonitrile formate] | 0.519 µM

Same assay, conditions: Acinetobacter baumannii, ATCC17961, 16 h, strain ATCC 17961, OD600 growth over 16 h, read-out: A. baumannii ATCC 17961 IC90

Row | Structure (SMILES) | IC90
5 | CC1(O)CN(C(=O)c2ccc(Nc3nccn4c(-c5cn(CC#N)nc5C(F)(F)F)cnc34)cc2Cl)C1 [Example 242, 2-[4-[8-[3-chloro-4-(3-hydroxy-3-methylazetidine-1-carbonyl)anilino]imidazo[1,2-a]pyrazin-3-yl]-3-(trifluoromethyl)pyrazol-1-yl]acetonitrile] | 0.33 µM
6 | N#CCn1cc(-c2cnc3c(Nc4ccc(C(=O)N5CC[C@H](O)C5)c(Cl)c4)nccn23)c(C(F)(F)F)n1 [Example 243, 2-[4-[8-[3-chloro-4-[(3S)-3-hydroxypyrrolidine-1-carbonyl]anilino]imidazo[1,2-a]pyrazin-3-yl]-3-(trifluoromethyl)pyrazol-1-yl]acetonitrile] | 0.384 µM
7 | N#CCn1cc(-c2cnc3c(Nc4ccc(C(=O)NCCOCCN)c(Cl)c4)nccn23)c(C(F)(F)F)n1 [Example 257, N-[2-(2-aminoethoxy)ethyl]-2-chloro-4-[[3-[1-(cyanomethyl)-3-(trifluoromethyl)pyrazol-4-yl]imidazo[1,2-a]pyrazin-8-yl]amino]benzamide] | 0.37 µM
8 | Cc1cc(Nc2nccn3c(-c4cn(CC#N)nc4C(F)(F)F)cnc23)ccc1C(=O)NCCOCCN [Example 262, N-[2-(2-aminoethoxy)ethyl]-4-[[3-[1-(cyanomethyl)-3-(trifluoromethyl)pyrazol-4-yl]imidazo[1,2-a]pyrazin-8-yl]amino]-2-methylbenzamide] | 1.1 µM

The next lines start with the values.

Row | IC90 | Structure (SMILES)
9 | 0.193 µM | N#CCn1cc(-c2cnc3c(Nc4ccc(C(=O)N5CC(O)C5)c(Cl)c4)nccn23)c(C(F)(F)F)n1 [Example 236, 2-[4-[8-[3-chloro-4-(3-hydroxyazetidine-1-carbonyl)anilino]imidazo[1,2-a]pyrazin-3-yl]-3-(trifluoromethyl)pyrazol-1-yl]acetonitrile]
10 | 0.411 µM | N#CCn1cc(-c2cnc3c(Nc4ccc(C(=O)N5CC[C@@H](O)C5)c(Cl)c4)nccn23)c(C(F)(F)F)n1 [Example 244, 2-[4-[8-[3-chloro-4-[(3R)-3-hydroxypyrrolidine-1-carbonyl]anilino]imidazo[1,2-a]pyrazin-3-yl]-3-(trifluoromethyl)pyrazol-1-yl]acetonitrile]
11 | 0.116 µM | O=C(c1ccc(Nc2nccn3c(-c4c[nH]nc4C(F)(F)F)cnc23)cc1Cl)N1CCN(C(=O)[C@]2(O)CCCNC2)CC1 [Example 247, [2-chloro-4-[[3-[3-(trifluoromethyl)-1H-pyrazol-4-yl]imidazo[1,2-a]pyrazin-8-yl]amino]phenyl]-[4-[(3S)-3-hydroxypiperidine-3-carbonyl]piperazin-1-yl]methanone]
12 | 0.311 µM | O=C(c1ccc(Nc2nccn3c(-c4c[nH]nc4C(F)(F)F)cnc23)cc1Cl)N1CCN(C(=O)[C@@]2(O)CCCNC2)CC1 [Example 248, [2-chloro-4-[[3-[3-(trifluoromethyl)-1H-pyrazol-4-yl]imidazo[1,2-a]pyrazin-8-yl]amino]phenyl]-[4-[(3R)-3-hydroxypiperidine-3-carbonyl]piperazin-1-yl]methanone]
13 | 0.047 µM | C#CCn1cc(-c2cnc3c(Nc4ccc(C(=O)NCCOCCN)c(Cl)c4)nccn23)c(C(F)(F)F)n1 [Example 249, N-[2-(2-aminoethoxy)ethyl]-2-chloro-4-[[3-[1-prop-2-ynyl-3-(trifluoromethyl)pyrazol-4-yl]imidazo[1,2-a]pyrazin-8-yl]amino]benzamide]
14 | 0.084 µM | NCCOCCNC(=O)c1ccc(Nc2nccn3c(-c4cn(CCF)nc4C(F)(F)F)cnc23)cc1Cl [Example 250, N-[2-(2-aminoethoxy)ethyl]-2-chloro-4-[[3-[1-(2-fluoroethyl)-3-(trifluoromethyl)pyrazol-4-yl]imidazo[1,2-a]pyrazin-8-yl]amino]benzamide]
15 | 0.136 µM | CCc1cc(Nc2nccn3c(-c4cn(CC#N)nc4C(F)(F)F)cnc23)ccc1C(=O)NCC#N [Example 251, N-(cyanomethyl)-4-[[3-[1-(cyanomethyl)-3-(trifluoromethyl)pyrazol-4-yl]imidazo[1,2-a]pyrazin-8-yl]amino]-2-ethylbenzamide]
16 | 0.198 µM | Cc1cc(Nc2nccn3c(-c4cn(CCF)nc4C(F)(F)F)cnc23)ccc1C(=O)NCCOCCN [Example 253, N-[2-(2-aminoethoxy)ethyl]-4-[[3-[1-(2-fluoroethyl)-3-(trifluoromethyl)pyrazol-4-yl]imidazo[1,2-a]pyrazin-8-yl]amino]-2-methylbenzamide]
17 | 0.222 µM | Cc1cc(Nc2nccn3c(-c4cn(CC(F)F)nc4C(F)(F)F)cnc23)ccc1C(=O)NCCOCCN [Example 254, N-[2-(2-aminoethoxy)ethyl]-4-[[3-[1-(2,2-difluoroethyl)-3-(trifluoromethyl)pyrazol-4-yl]imidazo[1,2-a]pyrazin-8-yl]amino]-2-methylbenzamide]

Same assay, conditions: strain ATCC 17961, OD600 growth over 16 h, read-out: A. baumannii ATCC 17961 IC90

Row | Structure (SMILES) | IC90
18 | N#CCn1cc(-c2cnc3c(Nc4ccc(C(=O)NCCO)c(Cl)c4)nccn23)c(C(F)(F)F)n1 [Example 234, 2-chloro-4-[[3-[1-(cyanomethyl)-3-(trifluoromethyl)pyrazol-4-yl]imidazo[1,2-a]pyrazin-8-yl]amino]-N-(2-hydroxyethyl) benzamide] | 0.189 µM
19 | C[C@@H](O)CNC(=O)c1ccc(Nc2nccn3c(-c4cn(CC#N)nc4C(F)(F)F)cnc23)cc1Cl [Example 237, 2-chloro-4-[[3-[1-(cyanomethyl)-3-(trifluoromethyl)pyrazol-4-yl]imidazo[1,2-a]pyrazin-8-yl]amino]-N-[(2R)-2-hydroxypropyl] benzamide] | 0.196 µM
20 | N[C@H]1CC[C@@H](NC(=O)N2CCN(C(=O)c3ccc(Nc4nccn5c(-c6c[nH]nc6C(F)(F)F)cnc45)cc3Cl)CC2)C1 [Example 238, N-[(1R,3S)-3-aminocyclopentyl]-4-[2-chloro-4-[[3-[3-(trifluoromethyl)-1H-pyrazol-4-yl]imidazo[1,2-a]pyrazin-8-yl]amino]benzoyl] piperazine-1-carboxamide formate] | 0.2 µM
21 | COCCNC(=O)c1ccc(Nc2nccn3c(-c4cn(CC#N)nc4C(F)(F)F)cnc23)cc1Cl [Example 239, 2-chloro-4-[[3-[1-(cyanomethyl)-3-(trifluoromethyl)pyrazol-4-yl]imidazo[1,2-a]pyrazin-8-yl]amino]-N-(2-methoxyethyl) benzamide] | 0.211 µM
22 | C[C@H](O)CNC(=O)c1ccc(Nc2nccn3c(-c4cn(CC#N)nc4C(F)(F)F)cnc23)cc1Cl [Example 240, 2-chloro-4-[[3-[1-(cyanomethyl)-3-(trifluoromethyl)pyrazol-4-yl]imidazo[1,2-a]pyrazin-8-yl]amino]-N-[(2S)-2-hydroxypropyl] benzamide] | 0.253 µM
23 | N[C@@H]1CN[C@@H](C(=O)N2CCN(C(=O)c3ccc(Nc4nccn5c(-c6c[nH]nc6C(F)(F)F)cnc45)cc3Cl)CC2)C1 [Example 245, [4-[(2R,4S)-4-aminopyrrolidine-2-carbonyl]piperazin-1-yl]-[2-chloro-4-[[3-[3-(trifluoromethyl-1H-pyrazol-4-yl]imidazo[1,2-a]pyrazin-8-yl]amino]phenyl]methanone formate] | 0.45 µM
24 | N#CCCn1cc(-c2cnc3c(Nc4ccc(C(=O)N5CCN(C(=O)NC6CNC6)CC5)c(Cl)c4)nccn23)c(C(F)(F)F)n1 [Example 246, N-(azetidin-3-yl)-4-[2-chloro-4-[[3-[1-(2-cyanoethyl)-3-(trifluoromethyl)pyrazol-4-yl]imidazo[1,2-a]pyrazin-8-yl]amino]benzoyl] piperazine-1-carboxamide formate] | 0.533 µM
25 | NCCOCCNC(=O)c1ccc(Nc2nccn3c(-c4cn(CC(F)F)nc4C(F)(F)F)cnc23)cc1Cl [Example 252, N-[2-(2-aminoethoxy)ethyl]-2-chloro-4-[[3-[1-(2,2-difluoroethyl)-3-(trifluoromethyl)pyrazol-4-yl]imidazo[1,2-a]pyrazin-8-yl]amino] benzamide] | 0.169 µM
26 | N#CCn1cc(-c2cnc3c(Nc4ccc(C(=O)N5CCN(C(=O)NCCN)CC5)c(Cl)c4)nccn23)c(C(F)(F)F)n1 [Example 258, N-(2-aminoethyl)-4-[2-chloro-4-[[3-[1-(2-cyanomethyl)-3-(trifluoromethyl)pyrazol-4-yl]imidazo[1,2-a]pyrazin-8-yl]amino]benzoyl] piperazine-1-carboxamide formate] | 0.398 µM
